Assay results from patent publication US12084444B2, “Spiro-lactam NMDA modulators and methods of using same” (Tenacia Biotechnology (Hong Kong) Co., Limited, priority 2016, dated 2024).

How the values were obtained:
[1] = tested on: Sprague Dawley rats; assay: Porsolt forced swim test; format: in vivo
Experimental: A non-clinical in vivo pharmacology study (Porsolt assay) was performed to measure antidepressant-like effects. A negative control (0.5% sodium carboxymethyl cellulose in 0.9% sterile saline vehicle) and a positive control (fluoxetine) are shown for comparison against test compound. The study allowed for the evaluation of the effects of each compound on the Porsolt forced swim test as assessed by the rats' response (reduced floating time) during a 5-minute swimming test.
(§1) Male 2-3 month old Sprague Dawley rats were used (Harlan, Indianapolis, IN). Rats were housed in Lucite cages with aspen wood chip bedding, maintained on a 12:12 light:dark cycle (lights on at 5 AM), and given ad libitum access to Purina lab chow (USA) and tap water throughout the study.
The Porsolt forced swim test adapted for use in rats was performed as described by Burgdorf et al., (The long-lasting antidepressant effects of rapastinel (GLYX-13) are associated with a metaplasticity process in the medial prefrontal cortex and hippocampus. Neuroscience 308:202-211, 2015). Animals were placed in a 46 cm tall×20 cm in diameter clear glass tube filled to 30 cm with tap water (23±1° C.) for 15 min on the first day (habituation) and 5 min on the subsequent test day. Positive control fluoxetine was dosed 3 times (24 h, 5 h and 1 h) prior to testing. Animals were tested 1 h or 24 h post-dosing with the test compounds or vehicle. Animals received a 15 min habituation session 1 day before the 5 min test. Water was changed after every other animal. Animals were videotaped, and floating time as defined as the minimal amount of effort required to keep the animals head above water was scored offline by a blinded experimenter with high inter-rater reliability (Pearson's r>0.9).
Each compound tested at dose level shown. Significance vs. vehicle group for each experiment is marked. […] A compound marked “No” was not statistically significant from vehicle. Data was averaged for test compound and vehicle groups (N approximately 8 per group) and the percent reduction in floating for group treated with test compound relative to group treated with vehicle is shown.

[2] = Oral pharmacokinetics (plasma, brain, CSF); format: in vivo, Sprague Dawley rats; details: rat, per os, 10 mg/kg; for AUC(0-t) / bioavailability / Tmax / Cmax: Sprague Dawley, plasma, po; for Tmax: normal saline
Experimental: In another experiment, Sprague Dawley rats were dosed per os using a normal saline formulation containing 10 mg/kg of the compounds identified in the table below. Plasma, brain, and CSF samples were analyzed at various time points over a 24 hour period. The table below summarizes the results of the oral pharmacokinetics.

[3] = IV pharmacokinetics; design: species or system Sprague Dawley rats; details: Sprague Dawley, in vivo, rat, 2 mg/kg, normal saline; for Vd: read-out: Vss
Experimental: Sprague Dawley rats were dosed intravenously using a normal saline formulation containing 2 mg/kg of the compounds identified in the below table. The table below summarizes the results of the IV pharmacokinetics.

[4] = molecular target: T1, NMDAR2B expressing HEK cell membranes (Homo sapiens, UniProt Q05586+Q13224); assay: NMDAR agonist assay, [3H]MK-801 binding, NMDAR2B; format: biochemical; details: 50 μM glutamate; for EC50: read-out: NMDAR2B B: log EC50 (converted); for Emax: 0.25 h, read-out: NMDAR2B A: % maximal [3H]MK-801 binding relative to 1 mM glycine
T1 construct: expressed in transfected cells; host or cells: HEK cells (membrane extract)
Experimental: (§2) Assays were conducted as described by Moskal et al., “GLYX-13: a monoclonal antibody-derived peptide that acts as an N-methyl-D-aspartate receptor modulator,” Neuropharmacology, 49, 1077-87, 2005. These studies were designed to determine if the test compounds act to facilitate NMDAR activation in NMDAR2A, NMDAR2B, NMDAR2C or NMDAR2D expressing HEK cell membranes as measured by increases in [^3H]MK-801 binding.
(§3) In the assay, 300 μg of NMDAR expressing HEK cell membrane extract protein was preincubated for 15 minutes at 25° C. in the presence of saturating concentrations of glutamate (50 μM) and varying concentrations of test compound (1×10^−15 M-1×10^−7 M), or 1 mM glycine. Following the addition of 0.3 μCi of [^3H]MK-801 (22.5 Ci/mmol), reactions were again incubated for 15 minutes at 25° C. (nonequilibrium conditions). Bound and free [^3H]MK-801 were separated via rapid filtration using a Brandel apparatus.
(§4) In analyzing the data, the DPM (disintegrations per minute) of [^3H]MK-801 remaining on the filter were measured for each concentration of test compound or for 1 mM glycine. The DPM values for each concentration of a ligand (N=2) were averaged. The baseline value was determined from the best fit curve of the DPM values modeled using the GraphPad program and the log(agonist) vs. response(three parameters) algorithm was then subtracted from all points in the dataset. The % maximal [^3H]MK-801 binding was then calculated relative to that of 1 mM glycine: all baseline subtracted DPM values were divided by the average value for 1 mM glycine. The EC50 and % maximal activity were then obtained from the best fit curve of the % maximal [^3H]MK-801 binding data modelled using the GraphPad program and the log(agonist) vs. response(three parameters) algorithm.
(§5) The tables below summarize the results for the wild type NMDAR agonists NMDAR2A, NMDAR2B, NMDAR2C, and NMDAR2D, and whether the compound is not an agonist (−), is an agonist (+), or is a strong agonist (++), where column A is based on the % maximal [^3H]MK-801 binding relative to 1 mM glycine (−=0; <100%=+; and >100%=++); and column B is based on log EC50 values (0=−; ≥1×10^−9 M (e.g., −8)=+; and <1×10^−9 M (e.g., −10)=++).

[5] = molecular target: T2, NMDAR2D expressing HEK cell membranes (Homo sapiens, UniProt O15399+Q05586); assay: NMDAR agonist assay, [3H]MK-801 binding, NMDAR2D; format: biochemical; details: 50 μM glutamate; read-out: NMDAR2D B: log EC50 (converted)
T2 construct: expressed in transfected cells; host or cells: HEK cells (membrane extract)
Experimental: as §2, §3, §4, §5

[6] = molecular target: T3, NMDAR2D expressing HEK cell membranes (Homo sapiens, UniProt O15399); assay: NMDAR agonist assay, [3H]MK-801 binding, NMDAR2D; format: biochemical; details: 50 μM glutamate
T3 construct: expressed in transfected cells; host or cells: HEK cells (membrane extract)
Experimental: as §2, §3, §4, §5

[7] = molecular target: T4, NMDAR2A expressing HEK cell membranes (Homo sapiens, UniProt Q05586+Q12879); assay: NMDAR agonist assay, [3H]MK-801 binding, NMDAR2A; format: biochemical; design: key to NMDAR2A B: log EC50: 0=−; ≥1×10^−9 M (e.g., −8)=+; <1×10^−9 M (e.g., −10)=++; details: 0.25 h, 50 μM glutamate; read-out: NMDAR2A A: % maximal [3H]MK-801 binding relative to 1 mM glycine
T4 construct: expressed in transfected cells; host or cells: HEK cells (membrane extract)
Experimental: as §2, §3, §4, §5

[8] = molecular target: T5, NMDAR2A expressing HEK cell membranes (Homo sapiens, UniProt Q12879); assay: NMDAR agonist assay, [3H]MK-801 binding, NMDAR2A; format: biochemical; design: key to NMDAR2A B: log EC50: 0=−; ≥1×10^−9 M (e.g., −8)=+; <1×10^−9 M (e.g., −10)=++; details: 50 μM glutamate
T5 construct: expressed in transfected cells; host or cells: HEK cells (membrane extract)
Experimental: as §2, §3, §4, §5

[9] = molecular target: T6, NMDAR2C expressing HEK cell membranes (Homo sapiens, UniProt Q14957); assay: NMDAR agonist assay, [3H]MK-801 binding, NMDAR2C; format: biochemical; details: 50 μM glutamate
T6 construct: expressed in transfected cells; host or cells: HEK cells (membrane extract)
Experimental: as §2, §3
as §4, with “algorithm. […]” for “algorithm.”

[10] = tested on: Sprague Dawley rats; assay: Bennett model of mechanical analgesia (sciatic nerve chronic constriction injury); format: in vivo; details: 150 mg/kg PO
Experimental: The Bennett model of mechanical analgesia is used to assess the analgesic effects of compounds as measured by paw withdrawal threshold. Bennett G J, Xie Y K, “A peripheral mononeuropathy in rat that produces disorders of pain sensation like those seen in man,” Pain 33:87-107, 1988. […] Vehicle animals receive the surgery and then receive vehicle rather than test compound. Animals were tested 1 hr, 24 h and 1 wk post-test compound or vehicle administration.
as §1, with “used. Harlan was the supplier for all studies.” for “used (Harlan, Indianapolis, IN).”
Rats were anesthetized using inhaled isoflurane (2.5%). Sciatic nerve chronic constriction nerve injury surgery was performed as previously described (Bennett and Xie, 1988). An incision (˜1.5 cm in length) was made with a scalpel blade dorsally through skin on the right hind limb, parallel and posterior to femur. Using a small pointed hemostat, the biceps femoris and gluteus superficialis muscles were separated. Using curved blunt forceps, the common sciatic nerve was isolated and exposed. For the mechanical analgesia studies, the whole sciatic nerve was ligated. Using hemostats/forceps and chromic gut (5-0), the nerve was loosely ligated with a square knot; 3 ligatures, 1 mm apart were placed on the nerve. […] Testing occurred approximately 2 weeks post-surgery.
During testing, rats were acclimated to the surface of a suspended wire mesh grid (1 cm×1 cm, with the wire being 0.3 cm in diameter) for 15-20 min. Starting from the smallest, each Von Frey filament was pressed perpendicularly to the plantar surface of the affected (ipsilateral) hind paw until slightly bent and then held for 6 second. If an obvious hind paw withdrawal or a flinching behavior immediately after the withdrawal of the filament was not observed, the next larger filament was used in the same manner. In case of a response, a lower filament was used. This was repeated until six responses were collected.
For all studies, animals were baselined prior to study start to test for allodynia (defined as a paw withdrawal threshold under 5). A subset of animals was tested with gabapentin (150 mg/kg, PO) to ensure at least 50% analgesia. Once it was confirmed animals were ready for study initiation, animals were balanced across groups. All study investigators were blind to treatment conditions. Animals were dosed with 0.1, 1, 10, or 30 mg/kg of test compound via oral gavage (PO), control sets of animals were dosed with gabapentin (150 mg/kg, PO) or vehicle (0.5% Na-CMC in 0.9% sterile saline, PO). Testing occurred 1 h post-dosing with animals retested 24 hrs and 1 week post-dosing. The percent analgesia calculations for each animal were made using the following equation: % analgesia=[(log(x)−y)/((log (z)−y)]*100, where x=the paw withdrawal threshold for the drug-treated animal in grams, y=the average of the log(x) values for the vehicle treated group, and z=the paw withdrawal threshold for naïve animals in grams (historical value of 15 used). The results for Compound AA-2, where the percentage of analgesia is measured at 1 hour, 24 hours, and 1 week after compound administration are as follows: for 0.1 mg/kg dose: 22.3% at 1 h, 1.6% at 24 h, and 2.3% at 1 wk; for 1 mg/kg dose: 19.2% at 1 h, 10.7% at 24 h, and 11.0% at 1 wk; for 10 mg/kg dose: 38.1% at 1 h, 24.3% at 24 h, and 41.4% at 1 wk; and for 30 mg/kg dose: 24.4% at 1 h, 8.7% at 24 h, and 34.5% at 1 wk.

[11] = 1 h post-dose, 0.1 mg/kg, relative to vehicle group
[12] = 24 h post-dose, 0.1 mg/kg, relative to vehicle group
[13] = 1 h post-dose, 20 mg/kg, dosed 3 times (24 h, 5 h and 1 h) prior to testing

T1 sequence (Q13224 27-1484, other chains not shown): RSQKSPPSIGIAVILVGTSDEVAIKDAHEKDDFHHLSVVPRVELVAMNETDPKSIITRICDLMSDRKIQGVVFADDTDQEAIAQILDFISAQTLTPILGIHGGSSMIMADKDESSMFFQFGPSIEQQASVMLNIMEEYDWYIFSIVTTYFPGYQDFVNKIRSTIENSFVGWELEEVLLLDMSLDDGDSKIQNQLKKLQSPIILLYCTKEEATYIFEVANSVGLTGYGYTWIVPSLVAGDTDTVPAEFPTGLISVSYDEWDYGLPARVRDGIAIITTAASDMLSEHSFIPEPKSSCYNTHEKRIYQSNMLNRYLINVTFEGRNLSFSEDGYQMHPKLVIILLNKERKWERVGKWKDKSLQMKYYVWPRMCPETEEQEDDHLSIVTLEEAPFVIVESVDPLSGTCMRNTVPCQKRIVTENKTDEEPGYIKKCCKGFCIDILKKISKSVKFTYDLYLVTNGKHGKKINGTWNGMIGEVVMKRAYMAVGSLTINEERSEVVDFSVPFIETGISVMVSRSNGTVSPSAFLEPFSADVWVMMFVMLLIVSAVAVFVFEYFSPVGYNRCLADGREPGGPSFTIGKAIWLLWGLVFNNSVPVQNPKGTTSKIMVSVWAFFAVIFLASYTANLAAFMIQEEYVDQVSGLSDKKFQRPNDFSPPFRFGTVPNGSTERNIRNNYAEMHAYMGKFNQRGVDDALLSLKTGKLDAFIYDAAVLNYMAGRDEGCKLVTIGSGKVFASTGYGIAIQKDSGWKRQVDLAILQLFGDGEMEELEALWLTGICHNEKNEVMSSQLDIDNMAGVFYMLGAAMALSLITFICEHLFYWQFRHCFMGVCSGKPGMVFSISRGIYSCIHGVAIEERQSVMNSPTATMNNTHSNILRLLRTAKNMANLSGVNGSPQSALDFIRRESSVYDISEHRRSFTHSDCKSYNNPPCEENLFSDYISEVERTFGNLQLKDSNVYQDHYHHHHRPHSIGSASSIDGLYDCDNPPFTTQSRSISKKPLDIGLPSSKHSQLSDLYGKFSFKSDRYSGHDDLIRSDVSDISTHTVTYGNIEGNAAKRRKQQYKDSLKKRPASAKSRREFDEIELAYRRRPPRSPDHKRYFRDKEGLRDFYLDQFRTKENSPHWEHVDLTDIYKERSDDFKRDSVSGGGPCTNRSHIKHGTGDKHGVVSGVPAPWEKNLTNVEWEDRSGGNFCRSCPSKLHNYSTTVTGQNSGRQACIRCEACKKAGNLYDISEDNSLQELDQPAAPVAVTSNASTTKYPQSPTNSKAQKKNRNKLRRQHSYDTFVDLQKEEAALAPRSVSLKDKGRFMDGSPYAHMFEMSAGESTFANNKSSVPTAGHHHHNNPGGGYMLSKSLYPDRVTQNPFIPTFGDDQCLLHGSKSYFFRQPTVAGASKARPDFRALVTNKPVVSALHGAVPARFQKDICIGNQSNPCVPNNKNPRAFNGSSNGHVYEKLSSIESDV
T6 sequence (Q14957 20-1233, other chains not shown): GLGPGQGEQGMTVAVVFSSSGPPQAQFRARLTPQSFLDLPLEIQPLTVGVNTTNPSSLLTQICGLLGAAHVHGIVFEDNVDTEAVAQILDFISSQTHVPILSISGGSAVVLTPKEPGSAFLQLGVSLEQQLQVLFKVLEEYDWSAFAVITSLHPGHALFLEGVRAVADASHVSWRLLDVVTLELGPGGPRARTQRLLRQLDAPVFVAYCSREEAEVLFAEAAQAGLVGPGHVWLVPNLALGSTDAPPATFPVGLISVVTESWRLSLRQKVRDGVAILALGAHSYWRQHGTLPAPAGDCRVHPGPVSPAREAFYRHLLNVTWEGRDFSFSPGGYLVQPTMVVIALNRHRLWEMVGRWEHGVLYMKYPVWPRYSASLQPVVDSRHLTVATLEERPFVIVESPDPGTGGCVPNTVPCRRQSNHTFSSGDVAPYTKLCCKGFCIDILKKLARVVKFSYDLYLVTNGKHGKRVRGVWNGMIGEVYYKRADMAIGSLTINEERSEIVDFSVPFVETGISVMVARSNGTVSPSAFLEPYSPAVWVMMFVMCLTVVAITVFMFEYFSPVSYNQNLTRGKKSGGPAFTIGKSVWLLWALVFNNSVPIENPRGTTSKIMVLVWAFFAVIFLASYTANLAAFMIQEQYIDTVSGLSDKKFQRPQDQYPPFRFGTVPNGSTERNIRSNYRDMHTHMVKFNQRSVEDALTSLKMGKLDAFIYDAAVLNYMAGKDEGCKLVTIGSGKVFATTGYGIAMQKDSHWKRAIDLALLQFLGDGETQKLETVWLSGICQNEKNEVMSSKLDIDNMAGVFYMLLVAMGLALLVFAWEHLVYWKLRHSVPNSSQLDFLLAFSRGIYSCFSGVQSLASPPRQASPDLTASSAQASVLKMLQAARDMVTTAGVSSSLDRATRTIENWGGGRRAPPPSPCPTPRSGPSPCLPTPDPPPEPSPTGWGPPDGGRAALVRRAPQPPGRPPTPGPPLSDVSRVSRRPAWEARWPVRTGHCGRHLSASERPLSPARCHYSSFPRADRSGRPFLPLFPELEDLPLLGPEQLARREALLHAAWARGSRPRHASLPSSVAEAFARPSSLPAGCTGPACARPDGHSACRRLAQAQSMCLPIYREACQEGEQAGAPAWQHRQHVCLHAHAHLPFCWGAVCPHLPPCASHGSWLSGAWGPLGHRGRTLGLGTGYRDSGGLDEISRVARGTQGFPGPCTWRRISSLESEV
T3 sequence (O15399 28-1336, other chains not shown): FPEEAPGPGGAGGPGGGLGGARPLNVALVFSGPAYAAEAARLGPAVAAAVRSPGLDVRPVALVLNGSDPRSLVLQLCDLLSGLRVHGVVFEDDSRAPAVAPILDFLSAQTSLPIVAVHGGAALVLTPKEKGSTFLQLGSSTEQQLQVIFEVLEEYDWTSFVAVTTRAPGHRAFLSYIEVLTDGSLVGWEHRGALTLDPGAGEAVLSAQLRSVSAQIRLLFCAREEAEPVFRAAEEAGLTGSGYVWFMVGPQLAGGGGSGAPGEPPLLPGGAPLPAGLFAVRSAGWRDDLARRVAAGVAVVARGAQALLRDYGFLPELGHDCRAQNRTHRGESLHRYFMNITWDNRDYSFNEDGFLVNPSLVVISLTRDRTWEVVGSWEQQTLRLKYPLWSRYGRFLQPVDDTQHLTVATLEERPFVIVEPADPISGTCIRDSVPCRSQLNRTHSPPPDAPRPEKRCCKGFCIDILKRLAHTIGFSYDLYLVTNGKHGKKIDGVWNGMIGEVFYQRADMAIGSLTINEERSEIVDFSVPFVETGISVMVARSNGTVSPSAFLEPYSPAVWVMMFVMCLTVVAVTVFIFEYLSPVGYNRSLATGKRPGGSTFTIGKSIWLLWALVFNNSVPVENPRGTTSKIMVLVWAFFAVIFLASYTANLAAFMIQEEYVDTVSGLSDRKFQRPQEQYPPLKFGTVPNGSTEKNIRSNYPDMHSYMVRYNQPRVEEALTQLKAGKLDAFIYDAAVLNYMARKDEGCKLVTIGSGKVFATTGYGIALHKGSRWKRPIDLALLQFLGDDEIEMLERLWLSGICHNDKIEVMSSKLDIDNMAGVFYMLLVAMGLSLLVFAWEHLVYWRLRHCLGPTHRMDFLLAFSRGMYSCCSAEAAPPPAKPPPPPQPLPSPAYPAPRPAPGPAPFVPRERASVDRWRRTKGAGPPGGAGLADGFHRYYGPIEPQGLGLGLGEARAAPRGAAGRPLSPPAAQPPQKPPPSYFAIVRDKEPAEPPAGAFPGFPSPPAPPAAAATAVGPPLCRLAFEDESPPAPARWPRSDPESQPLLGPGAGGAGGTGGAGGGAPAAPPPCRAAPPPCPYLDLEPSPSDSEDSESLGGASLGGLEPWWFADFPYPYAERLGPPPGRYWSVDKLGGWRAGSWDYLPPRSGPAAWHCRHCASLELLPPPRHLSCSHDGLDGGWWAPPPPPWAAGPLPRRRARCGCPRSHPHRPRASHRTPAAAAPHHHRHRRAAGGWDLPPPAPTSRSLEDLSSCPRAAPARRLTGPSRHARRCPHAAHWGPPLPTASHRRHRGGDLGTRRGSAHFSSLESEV
T2 sequence (O15399 28-1336, other chains not shown): as above

SMILES	Significance vs. vehicle ([1]; 1 h post-dose, 0.1 mg/kg)	% reduction in float time [1, 11] [%]	Significance vs. vehicle ([1]; 24 h post-dose, 0.1 mg/kg)	% reduction in float time [1, 12] [%]	AUC(0-t) [2] [ng·h/mL]	bioavailability [2] [%]	Tmax [2] [min]	Cmax [2] [ng/mL]	AUC(0-t) [3] [ng·h/mL]	C0 [3] [ng/mL]	clearance [3] [mL/min/kg]	half-life [3] [min]	Vd [3] [L/kg]	EC50 [4] [nM]	Emax [4] [%]	EC50 [5] [nM]	NMDAR2D A: % maximal [3H]MK-801 binding relative to 1 mM glycine [6]	Emax [7] [%]	NMDAR2A B: log EC50 [8]	NMDAR2C A: % maximal [3H]MK-801 binding relative to 1 mM glycine [9]	also measured
COc1ccc(CN2CC3(CCNC(=O)C3)C2=O)cc1 (racemic) [AA-rac, 2-(4-methoxybenzyl)-2,7-diazaspiro[3.5]nonane-1,6-dione]	Yes (found to be statistically significant (p<=0.05) from vehicle at dose level shown)	77.4	Yes (found to be statistically significant (p<=0.05) from vehicle at dose level shown)	74.40	17800	57	40.2	5810	6300	5790	5.28	199	0.56	< 1	< 100	< 1	+ (<100%=+)	0	−	− (−=0)	CSF Cmax ([2]; CSF): 1466.9 ng/mL; Brain Cmax ([2]; brain): 951 ng/mL
COc1ccc(CN2C[C@]3(CCNC(=O)C3)C2=O)cc1 [AA-1, 2-(4-methoxybenzyl)-2,7-diazaspiro[3.5]nonane-1,6-dione]	Yes (found to be statistically significant (p<=0.05) from vehicle at dose level shown)	74.4	Yes (found to be statistically significant (p<=0.05) from vehicle at dose level shown)	69.50	15500	90	19.8	8920	3430	2340	9.69	67.2	0.76	< 1	< 100	≥ 1	+ (<100%=+)	0	−	− (−=0)	
CNCCC(Oc1ccc(C(F)(F)F)cc1)c1ccccc1 (centres unmarked) [Fluoxetine, fluoxetine, reference compound]																					% reduction in float time [1, 13]: 54%; Significance vs. vehicle [1, 13]: Yes (found to be statistically significant (p<=0.05) from vehicle at dose level shown)
NCC1(CC(=O)O)CCCCC1 [gabapentin, reference compound]																					% analgesia, for the study ([10]; 1 week post-administration): under 5%; % analgesia, example (typical) control value ([10]; 1 wk): 0%; % analgesia, example (typical) control value ([10]; 1 h): 72%; % analgesia, for the study ([10]; 1 h post-administration): at least 50%; % analgesia, example (typical) control value ([10]; 24 h): 16%; % analgesia, for the study ([10]; 24 h post-administration): under 5%
